Assay results reported in ChEMBL document CHEMBL5252583, “Cancer cell growth suppressibility of ω-3 fatty acid whose carboxy group converted to ester group” (Bioorg Med Chem Lett, 2023).

Legend:
[1] = tested on: MIA PaCa-2; test: Antiproliferative activity against human MIA PaCa-2 cells assessed as cell growth inhibition at 500 uM measured after 24 hrs by alamar blue assay relative to control; assay type: functional
[2] = tested on: HCT-116; test: Antiproliferative activity against human HCT-116 cells assessed as cell growth inhibition at 500 uM measured after 24 hrs by alamar blue assay relative to control; assay type: functional
[3] = tested on: MCF7; test: Antiproliferative activity against human MCF7 cells assessed as cell growth inhibition at 500 uM measured after 24 hrs by alamar blue assay relative to control; assay type: functional
[4] = Drug uptake in human MIA PaCa-2 cells assessed as increase in incorporation of compound into lipid droplets by measuring absorbance at 50 uM incubated for 24 hrs by Oil Red O staining based fluorescence microscopic analysis (reference value: 2.35 +/- 0.11 10^-2No_unit); assay type: ADME, cell-based; settings: mia paca-2, 24 h

| Activity [4] | Structure (SMILES) | inhibition at 500 µM [1] [%] | inhibition at 500 µM [2] [%] | inhibition at 500 µM [3] [%] |
| --- | --- | --- | --- | --- |
| 4.12 10^-2No_unit | CC/C=C\C/C=C\C/C=C\CCCCCCCC(=O)Oc1ccccc1 | 23 | 36 | 48 |
| 3.94 10^-2No_unit | CC/C=C\C/C=C\C/C=C\CCCCCCCC(=O)Oc1ccc(OC)cc1 | 26 | 40 | 49 |
| 4.07 10^-2No_unit | CC/C=C\C/C=C\C/C=C\CCCCCCCC(=O)Oc1ccc(C(F)(F)F)cc1 | 25 | 37 | 47 |
| 4.19 10^-2No_unit | CC/C=C\C/C=C\C/C=C\CCCCCCCC(=O)O [LINOLENIC ACID] | 25 | 36 | 50 |
